Laboratory results reported in patent US12723024B2 (priority 2021, dated 2026).
Values after ≈ are worked out from the molar mass of the structure shown. Like-named read-outs stand apart in the source and are kept apart here.

Experiments:
[1] = Salt screening (slurry crystallization); assay type: physicochemical; set-up: key to Salt screening result: (+) shows that a crystalline salt was formed; (−) physical mixtures; settings: for Polymorph obtained in salt screening: XRPD; for Salt screening result: slurry 50° C. then 25° C.
Experimental: About 45 mg was added to a suitable solvent and different equivalents of acids were added under stirring at 50° C. for about 2 hours and then at 25° C. for at least 32 hours. Ethanol, acetone, and ACN were used as screening solvents. When no precipitation was obtained or only a few solids were obtained, the solutions were placed at 5° C. for crystallization.
(§1) Obtained suspensions were taken out and centrifuged. Solids obtained was analysed by XRPD. Salts with high or medium crystallinity were further characterized (see Table 5).

[2] = Crystallinity by XRPD; assay type: physicochemical
Experimental: as §1
(§2) According to the salt screening results (see Table 4), totally 19 potential salt hits were identified. All the potential salt hits were further investigated by Differential Scanning Calorimetry (DSC), Thermogravimetric analysis (TGA), H-NMR, Ion chromatography (IC), Karl Fischer titration (KF), and Polarized Light Microscopy (PLM) to confirm their identity and evaluate their physicochemical properties as shown in Table 5 below.

[3] = Thermogravimetric analysis (TGA) weight loss; assay type: physicochemical; settings: salt screening sample, at the temperature given (80-200° C.)
From the text: as §2

[4] = Hygroscopicity (water uptake) of salt hits; assay type: physicochemical; settings: salt screening sample; grade in words
From the text: as §2

[5] = Dynamic vapor sorption (DVS) test at 25° C.; assay type: physicochemical; settings: for Desorp. (%) / Sorp. (%) / Water absorbed from 40% RH to 95% RH / 1st Desorp. (%) / 2nd Sorp. (%) / 1st Sorp. (%) / 2nd Desorp. (%): 25° C.; for Desorp. (%) / Sorp. (%): cycle 40-0-95-0-40% RH; for XRPD after DVS test / Hygroscopicity: DVS at 25° C.; for Hygroscopicity: grade in words; for 1st Desorp. (%) / 2nd Sorp. (%) / 1st Sorp. (%) / 2nd Desorp. (%): cycle 40-95-0-95-40% RH
[6] = Thermogravimetric analysis (TGA) weight loss; assay type: physicochemical; settings: large scale batch
[7] = assay type: physicochemical; settings: for Initial chemical purity (%): before storage; for chemical purity (%): solid state; for chemical purity (%) / Bulk stability: 1 week; for Bulk stability: stressed conditions: 25° C./92% RH
[8] = assay type: physicochemical
From the text: as §2

[9] = Solubility in pH buffers and bio-relevant media at 37° C.; assay type: physicochemical; settings: thermodynamic from solid
[10] = Solubility in water at 25° C.; settings: thermodynamic from solid
[11] = at the temperature printed in the same cell (100-170° C.)
[12] = listed as hydrochloride salt (polymorph A)
[13] = large scale batch, listed as free base (polymorph B)
[14] = aqueous buffer, pH 4.5 (50 mM) acetate buffer, tested up to 2 mg/mL
[15] = aqueous buffer, pH 6.8 (50 mM) phosphate buffer, tested up to 2 mg/mL
[16] = pH 1.2 HCl buffer (0.1N HCl), simulated gastric fluid, pH 1.2 (0.1N HCl), tested up to 2 mg/mL
[17] = simulated gastric fluid, SGF, pH 2.0, tested up to 2 mg/mL
[18] = FaSSIF-V1, pH 6.5, tested up to 2 mg/mL
[19] = FeSSIF-V1, pH 5.0, tested up to 2 mg/mL

## COc1cc(C(F)(F)F)c(OC)cc1[C@@H]1CCCNC1.O=C(O)C(O)C(O)C(=O)O [L-tartrate salt (Polymorph B, anhydrate), L-tartaric acid salt of (S)-3-(2,5-dimethoxy-4-(trifluoromethyl)phenyl)piperidine]
[1]; ACN
  Polymorph obtained in salt screening: Polymorph B
  Salt screening result: +
[1]; Acetone
  Polymorph obtained in salt screening: Polymorph B
  Salt screening result: +
[1]; EtOH
  Polymorph obtained in salt screening: Polymorph B
  Salt screening result: +
[2]; large scale batch
  Crystallinity: High
[2]; large scale batch, listed as L-tartrate salt Polymorph B
  Crystallinity: high crystallinity
[2]; salt screening sample
  Crystallinity: High
[3]
  Weight loss (%): 0.9%
[4]
  Hygroscopicity: None
[5]; 0% RH
  Desorp. (%): 0.01%
  Sorp. (%): 0.04%
[5]; 10% RH
  Desorp. (%): 0.03%
  Sorp. (%): 0.06%
[5]; 20% RH
  Desorp. (%): 0.07%
  Sorp. (%): 0.08%
[5]
  Water absorbed from 40% RH to 95% RH: about 1.5%
  XRPD after DVS test: No form changes
  Hygroscopicity: slightly hygroscopic
[5]; 30% RH
  Desorp. (%): 0.10%
  Sorp. (%): 0.10%
[5]; 40% RH
  Desorp. (%): 0.13%
  Sorp. (%): 0.12%
[5]; 50% RH
  Desorp. (%): 0.19%
  Sorp. (%): 0.13%
[5]; 60% RH
  Desorp. (%): 0.29%
  Sorp. (%): 0.15%
[5]; 70% RH
  Desorp. (%): 0.48%
  Sorp. (%): 0.19%
[5]; 80% RH
  Desorp. (%): 0.67%
  Sorp. (%): 0.66%
[5]; 90% RH
  Desorp. (%): 1.18%
  Sorp. (%): 1.00%
[5]; 95% RH
  Desorp. (%): 1.60%
  Sorp. (%): 1.60%
[6]; [11]
  Weight loss (%) at Temperature (° C.): 0.4 at %
[6]; at the temperature printed in the same cell (100-170° C.), listed as L-tartrate salt Polymorph B
  Weight loss (%) at Temperature (° C.): about 0.4%

## COc1cc(C(F)(F)F)c(OC)cc1[C@@H]1CCCNC1.Cl [HCl salt of (S)-3-(2,5-dimethoxy-4-(trifluoromethyl)phenyl)piperidine]
[1]; ACN
  Polymorph obtained in salt screening: Polymorph A
  Salt screening result: +
[1]; Acetone
  Polymorph obtained in salt screening: Polymorph A
  Salt screening result: +
[1]; EtOH
  Polymorph obtained in salt screening: Polymorph A
  Salt screening result: +
[2]; large scale batch
  Crystallinity: High
[2]; large scale batch, listed as hydrochloride salt (polymorph A)
  Crystallinity: high crystallinity
[2]; salt screening sample
  Crystallinity: High
[3]
  Weight loss (%): 0.08%
[4]
  Hygroscopicity: None
[7]
  Initial chemical purity (%): 99.8%
[7]; 25° C./92% RH, open container
  chemical purity (%): 99.8%
[7]; 40° C./75% RH, open container
  chemical purity (%): 99.8%
[7]; 60° C., tight container
  chemical purity (%): 99.8%
[7]; 40° C./75% RH, 60° C.
  Bulk stability: chemically and physically stable
[5]; 0% RH
  Desorp. (%): 0.01%
  Sorp. (%): 0.00%
[5]; 10% RH
  Desorp. (%): 0.01%
  Sorp. (%): 0.01%
[5]; 20% RH
  Desorp. (%): 0.012%
  Sorp. (%): 0.01%
[5]
  Water absorbed from 40% RH to 95% RH: about 0.17%
[5]; 30% RH
  Desorp. (%): 0.03%
  Sorp. (%): 0.01%
[5]; 40% RH
  Desorp. (%): 0.03%
  Sorp. (%): 0.01%
[5]; 50% RH
  Desorp. (%): 0.04%
  Sorp. (%): 0.01%
[5]; 60% RH
  Desorp. (%): 0.04%
  Sorp. (%): 0.02%
[5]; 70% RH
  Desorp. (%): 0.04%
  Sorp. (%): 0.03%
[5]; 80% RH
  Desorp. (%): 0.07%
  Sorp. (%): 0.05%
[5]; 90% RH
  Desorp. (%): 0.12%
  Sorp. (%): 0.12%
[5]; 95% RH
  Desorp. (%): 0.19%
  Sorp. (%): 0.19%
[5]; [12]
  Hygroscopicity: non-hygroscopic
  XRPD after DVS test: No form changes
[6]; at the temperature (100-170° C.), listed as hydrochloride salt (polymorph A)
  Weight loss (%) at Temperature (° C.): about 0.3%
[6]; [11]
  Weight loss (%) at Temperature (° C.): 0.3 at %

## COc1cc(C(F)(F)F)c(OC)cc1[C@@H]1CCCNC1 [Free base (Polymorph B), (S)-3-(2,5-dimethoxy-4-(trifluoromethyl)phenyl)piperidine]
[1]; ACN
  Salt screening result: Clear solution
[1]; Acetone
  Salt screening result: Clear solution
[1]; EtOH
  Salt screening result: Clear solution
[2]; large scale batch
  Crystallinity: High
[2]; [13]
  Crystallinity: high crystallinity
[2]; salt screening sample
  Crystallinity: High
[3]
  Weight loss (%): 8.0%
[8]; large scale batch
  Water content (% w/w): 8.0% w/w
[8]; [13]
  Water content (% w/w): about 8 % w/w
[8]; salt screening sample
  Water content (% w/w): 8% w/w
[7]
  Initial chemical purity (%): 98.7%
[7]; 25° C./92% RH, open container
  chemical purity (%): 98.7%
[7]; 40° C./75% RH, open container
  chemical purity (%): 98.8%
[7]; 60° C., tight container
  chemical purity (%): 98.5%
[7]; 40° C./75% RH, 60° C.
  Bulk stability: chemically stable in these conditions, but physically unstable at 60 °C
[9]; [14]
  solubility at 2 h: > 2000 µg/mL
  solubility at 24 h: > 2000 µg/mL
[9]; [15]
  solubility at 2 h: 1540 µg/mL (≈ 5.32 mM)
  solubility at 24 h: 1580 µg/mL (≈ 5.46 mM)
[9]; [16]
  solubility at 2 h: > 2000 µg/mL
  solubility at 24 h: > 2000 µg/mL
[9]; [17]
  solubility at 2 h: > 2000 µg/mL
  solubility at 24 h: > 2000 µg/mL
[9]; [18]
  solubility at 2 h: > 2000 µg/mL
  solubility at 24 h: > 2000 µg/mL
[9]; [19]
  solubility at 2 h: > 2000 µg/mL
  solubility at 24 h: > 2000 µg/mL
[9]; Water, tested up to 2 mg/mL
  solubility at 2 h: 110 µg/mL (≈ 0.38 mM)
  solubility at 24 h: 140 µg/mL (≈ 0.484 mM)
[5]; 0% RH
  1st Desorp. (%): 0.02%
  2nd Sorp. (%): 0.02%
[5]; 10% RH
  1st Desorp. (%): 0.20%
  2nd Sorp. (%): 0.002%
[5]; 20% RH
  1st Desorp. (%): 6.07%
  2nd Sorp. (%): 0.007%
[5]; 30% RH
  1st Desorp. (%): 6.29%
  2nd Sorp. (%): 0.02%
[5]; 40% RH
  1st Desorp. (%): 8.54%
  1st Sorp. (%): 8.34%
  2nd Desorp. (%): 8.23%
  2nd Sorp. (%): 0.02%
[5]; 50% RH
  1st Desorp. (%): 8.90%
  1st Sorp. (%): 8.83%
  2nd Desorp. (%): 8.76%
  2nd Sorp. (%): 0.04%
[5]; 60% RH
  1st Desorp. (%): 8.90%
  1st Sorp. (%): 8.90%
  2nd Desorp. (%): 8.79%
  2nd Sorp. (%): 0.06%
[5]; 70% RH
  1st Desorp. (%): 8.97%
  1st Sorp. (%): 8.96%
  2nd Desorp. (%): 8.87%
  2nd Sorp. (%): 0.12%
[5]; 80% RH
  1st Desorp. (%): 9.03%
  1st Sorp. (%): 9.02%
  2nd Desorp. (%): 8.95%
  2nd Sorp. (%): 3.80%
[5]; 90% RH
  1st Desorp. (%): 9.13%
  1st Sorp. (%): 9.11%
  2nd Desorp. (%): 9.06%
  2nd Sorp. (%): 9.00%
[5]; 95% RH
  1st Desorp. (%): 9.21%
  1st Sorp. (%): 9.21%
  2nd Desorp. (%): 9.14%
  2nd Sorp. (%): 9.14%
[5]
  Hygroscopicity: undergoes dehydration when relative humidity is below 40%
[6]; [11]
  Weight loss (%) at Temperature (° C.): 8.0 at %
[6]; at the temperature printed in the same cell (100-170° C.), listed as free base (polymorph B)
  Weight loss (%) at Temperature (° C.): about 8%
[10]
  solubility at 2 h: 110 µg/mL (≈ 0.38 mM)
  solubility at 24 h: 140 µg/mL (≈ 0.484 mM)
